Holding throughout (assay): Kinase profiling
Holding throughout (format): biochemical

For one assay, the target named is T1, TAOK3 (Homo sapiens, UniProt Q9H2K8).
T1 construct: purchased ProQinase (Freiburg, Germany)
T1 sequence (Q9H2K8 1-898): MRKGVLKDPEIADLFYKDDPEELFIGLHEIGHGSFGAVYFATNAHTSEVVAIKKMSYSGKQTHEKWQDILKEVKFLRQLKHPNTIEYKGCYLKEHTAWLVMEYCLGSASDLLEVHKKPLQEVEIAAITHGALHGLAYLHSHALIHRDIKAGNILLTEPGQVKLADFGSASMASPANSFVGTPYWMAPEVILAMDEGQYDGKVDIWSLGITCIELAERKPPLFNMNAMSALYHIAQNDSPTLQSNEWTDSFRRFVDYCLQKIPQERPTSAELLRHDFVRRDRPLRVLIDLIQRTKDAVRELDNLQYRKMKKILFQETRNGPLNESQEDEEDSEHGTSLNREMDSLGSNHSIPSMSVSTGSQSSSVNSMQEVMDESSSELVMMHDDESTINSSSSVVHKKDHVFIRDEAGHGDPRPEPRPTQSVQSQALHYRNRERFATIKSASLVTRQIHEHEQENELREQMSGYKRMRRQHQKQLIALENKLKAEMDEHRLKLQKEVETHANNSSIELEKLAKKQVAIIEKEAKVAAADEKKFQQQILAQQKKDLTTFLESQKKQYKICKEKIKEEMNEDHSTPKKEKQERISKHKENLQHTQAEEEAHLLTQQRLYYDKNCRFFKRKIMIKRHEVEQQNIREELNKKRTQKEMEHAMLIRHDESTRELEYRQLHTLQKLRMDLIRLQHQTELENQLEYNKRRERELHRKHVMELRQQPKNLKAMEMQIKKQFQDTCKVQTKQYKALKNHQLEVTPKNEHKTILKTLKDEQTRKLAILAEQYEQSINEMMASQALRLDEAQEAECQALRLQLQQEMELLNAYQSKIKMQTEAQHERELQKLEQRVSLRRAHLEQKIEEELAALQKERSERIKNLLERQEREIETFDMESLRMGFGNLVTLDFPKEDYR
As for the experimental part:
(§1) The analysis was performed by ProQinase (Freiburg, Germany).

For another assay, the target named is T2, SIK1 (Homo sapiens, UniProt P57059).
T2 construct: purchased ProQinase (Freiburg, Germany)
T2 sequence (P57059 whole entry): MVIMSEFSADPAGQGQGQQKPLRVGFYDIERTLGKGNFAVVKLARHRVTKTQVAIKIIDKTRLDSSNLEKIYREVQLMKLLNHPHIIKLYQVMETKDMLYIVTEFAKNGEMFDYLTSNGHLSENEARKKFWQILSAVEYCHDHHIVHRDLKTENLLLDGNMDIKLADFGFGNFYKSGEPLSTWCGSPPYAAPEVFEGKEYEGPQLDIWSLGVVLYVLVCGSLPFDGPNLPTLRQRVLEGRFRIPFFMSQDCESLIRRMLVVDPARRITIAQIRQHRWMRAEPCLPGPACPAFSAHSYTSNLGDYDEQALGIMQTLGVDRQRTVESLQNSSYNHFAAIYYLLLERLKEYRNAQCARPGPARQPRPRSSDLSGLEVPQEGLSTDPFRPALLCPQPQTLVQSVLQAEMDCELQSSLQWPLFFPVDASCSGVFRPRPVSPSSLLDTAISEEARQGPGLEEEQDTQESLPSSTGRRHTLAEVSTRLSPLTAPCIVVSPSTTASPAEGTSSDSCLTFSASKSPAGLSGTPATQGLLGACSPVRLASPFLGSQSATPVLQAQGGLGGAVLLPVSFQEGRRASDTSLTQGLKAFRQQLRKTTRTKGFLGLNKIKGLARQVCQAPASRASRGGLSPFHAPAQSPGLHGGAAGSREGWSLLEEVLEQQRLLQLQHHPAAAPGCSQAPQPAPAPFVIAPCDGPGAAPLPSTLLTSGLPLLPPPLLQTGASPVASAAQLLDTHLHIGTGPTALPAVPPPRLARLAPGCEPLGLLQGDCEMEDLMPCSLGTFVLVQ
How it is done:
as §1

In the next assay the target is T3, GRK3 (Homo sapiens, UniProt P35626).
T3 construct: purchased ProQinase (Freiburg, Germany)
T3 sequence (P35626 1-688): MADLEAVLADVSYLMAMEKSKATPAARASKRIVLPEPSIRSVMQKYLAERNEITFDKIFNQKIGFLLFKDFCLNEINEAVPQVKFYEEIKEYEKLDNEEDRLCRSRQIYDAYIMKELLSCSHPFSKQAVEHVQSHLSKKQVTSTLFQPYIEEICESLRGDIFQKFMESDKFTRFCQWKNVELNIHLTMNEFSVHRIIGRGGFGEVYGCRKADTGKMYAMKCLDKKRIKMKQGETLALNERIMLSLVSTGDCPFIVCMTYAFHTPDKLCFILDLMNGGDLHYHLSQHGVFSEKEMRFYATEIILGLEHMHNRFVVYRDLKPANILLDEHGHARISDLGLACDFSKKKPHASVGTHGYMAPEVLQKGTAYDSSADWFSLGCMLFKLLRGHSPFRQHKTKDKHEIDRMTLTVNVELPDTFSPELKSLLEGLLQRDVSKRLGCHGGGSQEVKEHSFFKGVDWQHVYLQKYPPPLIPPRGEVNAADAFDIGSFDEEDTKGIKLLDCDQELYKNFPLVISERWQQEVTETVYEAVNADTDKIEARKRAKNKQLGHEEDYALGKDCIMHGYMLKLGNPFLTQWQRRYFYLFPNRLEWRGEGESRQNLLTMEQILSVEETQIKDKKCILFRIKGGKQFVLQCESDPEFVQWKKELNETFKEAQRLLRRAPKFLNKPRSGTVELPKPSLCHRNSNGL
How it is done:
as §1

The next assay addresses T4, EEF2K (Homo sapiens, UniProt O00418).
T4 construct: purchased ProQinase (Freiburg, Germany)
T4 sequence (O00418 1-725): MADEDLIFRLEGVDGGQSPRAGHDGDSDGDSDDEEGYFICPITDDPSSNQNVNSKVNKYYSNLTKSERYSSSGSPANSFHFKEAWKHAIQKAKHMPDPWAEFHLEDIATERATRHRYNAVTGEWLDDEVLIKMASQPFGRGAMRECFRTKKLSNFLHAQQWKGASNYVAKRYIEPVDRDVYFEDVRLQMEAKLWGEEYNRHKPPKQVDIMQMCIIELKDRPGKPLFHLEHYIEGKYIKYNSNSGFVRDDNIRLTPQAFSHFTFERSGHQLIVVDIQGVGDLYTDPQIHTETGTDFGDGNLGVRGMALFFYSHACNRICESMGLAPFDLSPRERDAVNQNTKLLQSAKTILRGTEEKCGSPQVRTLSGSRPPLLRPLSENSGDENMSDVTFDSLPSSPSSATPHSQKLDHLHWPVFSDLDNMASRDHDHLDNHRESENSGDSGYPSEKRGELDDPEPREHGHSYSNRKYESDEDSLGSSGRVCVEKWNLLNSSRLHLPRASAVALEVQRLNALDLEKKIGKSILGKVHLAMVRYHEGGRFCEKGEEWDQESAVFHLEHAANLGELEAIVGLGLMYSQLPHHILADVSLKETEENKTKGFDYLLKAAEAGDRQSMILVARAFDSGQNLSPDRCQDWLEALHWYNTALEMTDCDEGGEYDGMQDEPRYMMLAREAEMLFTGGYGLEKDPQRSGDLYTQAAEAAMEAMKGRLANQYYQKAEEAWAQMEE
How it is done:
as §1

The next assay addresses T5, PKCtheta (Homo sapiens, UniProt Q04759).
T5 construct: purchased ProQinase (Freiburg, Germany)
As for the experimental part: as §1

The target of the next assay is T6, PAK2 (Homo sapiens, UniProt Q13177).
T6 construct: purchased ProQinase (Freiburg, Germany)
T6 sequence (Q13177 whole entry): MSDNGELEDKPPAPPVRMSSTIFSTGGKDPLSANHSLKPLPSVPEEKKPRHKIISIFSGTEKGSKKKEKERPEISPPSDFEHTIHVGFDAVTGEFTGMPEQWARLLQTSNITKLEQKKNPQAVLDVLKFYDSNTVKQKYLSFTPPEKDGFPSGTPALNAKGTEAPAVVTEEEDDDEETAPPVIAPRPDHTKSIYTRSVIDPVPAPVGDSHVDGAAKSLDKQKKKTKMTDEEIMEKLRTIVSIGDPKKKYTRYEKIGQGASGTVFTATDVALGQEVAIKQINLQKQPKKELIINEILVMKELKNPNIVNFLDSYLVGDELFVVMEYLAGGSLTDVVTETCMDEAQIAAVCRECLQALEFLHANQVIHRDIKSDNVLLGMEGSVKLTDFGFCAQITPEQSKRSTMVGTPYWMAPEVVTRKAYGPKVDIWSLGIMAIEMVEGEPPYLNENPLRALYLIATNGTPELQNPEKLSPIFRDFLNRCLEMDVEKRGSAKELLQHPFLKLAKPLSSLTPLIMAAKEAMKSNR
How it is done:
as §1

The next assay deals with T7, TRKA (Homo sapiens, UniProt P04629).
T7 construct: purchased ProQinase (Freiburg, Germany)
T7 sequence (P04629 33-796): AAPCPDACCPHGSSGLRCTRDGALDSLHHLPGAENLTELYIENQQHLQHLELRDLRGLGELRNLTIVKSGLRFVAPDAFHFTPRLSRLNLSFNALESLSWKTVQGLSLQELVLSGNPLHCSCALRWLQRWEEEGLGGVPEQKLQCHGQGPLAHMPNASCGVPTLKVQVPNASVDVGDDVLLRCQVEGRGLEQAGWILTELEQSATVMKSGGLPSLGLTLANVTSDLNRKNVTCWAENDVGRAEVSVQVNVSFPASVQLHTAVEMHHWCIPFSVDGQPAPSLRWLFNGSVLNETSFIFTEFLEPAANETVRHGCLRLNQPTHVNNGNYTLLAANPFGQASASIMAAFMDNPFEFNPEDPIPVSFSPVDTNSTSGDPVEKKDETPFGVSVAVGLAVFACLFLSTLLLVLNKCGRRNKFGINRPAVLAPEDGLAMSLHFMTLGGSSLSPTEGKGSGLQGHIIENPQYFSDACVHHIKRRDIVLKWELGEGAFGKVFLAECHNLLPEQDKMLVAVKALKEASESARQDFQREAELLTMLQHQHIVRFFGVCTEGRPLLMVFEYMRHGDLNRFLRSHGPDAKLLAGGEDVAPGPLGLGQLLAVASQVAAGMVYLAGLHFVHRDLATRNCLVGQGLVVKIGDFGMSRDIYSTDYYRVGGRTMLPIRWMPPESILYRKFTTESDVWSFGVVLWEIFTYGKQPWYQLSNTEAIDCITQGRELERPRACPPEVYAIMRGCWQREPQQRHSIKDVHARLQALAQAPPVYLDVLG
How it is done:
as §1

In a further assay the target is T8, p38beta (Homo sapiens, UniProt Q15759).
T8 construct: purchased ProQinase (Freiburg, Germany)
T8 sequence (Q15759 whole entry): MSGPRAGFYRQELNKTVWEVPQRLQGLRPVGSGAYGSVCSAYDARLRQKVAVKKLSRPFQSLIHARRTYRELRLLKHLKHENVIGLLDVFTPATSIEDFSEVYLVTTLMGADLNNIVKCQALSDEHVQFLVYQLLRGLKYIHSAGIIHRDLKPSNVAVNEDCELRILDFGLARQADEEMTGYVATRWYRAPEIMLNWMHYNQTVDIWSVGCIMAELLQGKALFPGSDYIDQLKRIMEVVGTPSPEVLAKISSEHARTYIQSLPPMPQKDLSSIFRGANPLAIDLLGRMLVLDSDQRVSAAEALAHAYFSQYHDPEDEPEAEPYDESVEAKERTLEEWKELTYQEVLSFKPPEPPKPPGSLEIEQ
The conditions noted are these: for inhibition at 10 µM: read-out: inhibition of p38β. How it is done:
as §1

The next assay has as its target T9, MST3 (Homo sapiens, UniProt Q9Y6E0).
T9 construct: purchased ProQinase (Freiburg, Germany)
As for the experimental part:
as §1

A further assay concerns the target T10, INSRR (Homo sapiens, UniProt P14616).
T10 construct: purchased ProQinase (Freiburg, Germany)
How it is done: as §1

T9 sequence (Q9Y6E0 whole entry): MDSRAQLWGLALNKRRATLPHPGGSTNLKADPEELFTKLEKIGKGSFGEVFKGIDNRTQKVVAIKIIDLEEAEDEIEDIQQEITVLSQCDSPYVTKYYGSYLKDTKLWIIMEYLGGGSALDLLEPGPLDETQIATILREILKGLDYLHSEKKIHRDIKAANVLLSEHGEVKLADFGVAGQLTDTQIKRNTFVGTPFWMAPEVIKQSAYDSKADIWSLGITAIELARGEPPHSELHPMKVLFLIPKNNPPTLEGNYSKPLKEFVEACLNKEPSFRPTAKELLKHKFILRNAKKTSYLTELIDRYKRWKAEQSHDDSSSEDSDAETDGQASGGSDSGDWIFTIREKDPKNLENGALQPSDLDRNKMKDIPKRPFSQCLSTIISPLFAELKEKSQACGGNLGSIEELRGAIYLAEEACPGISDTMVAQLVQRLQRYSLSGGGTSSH
T10 sequence (P14616 27-1297): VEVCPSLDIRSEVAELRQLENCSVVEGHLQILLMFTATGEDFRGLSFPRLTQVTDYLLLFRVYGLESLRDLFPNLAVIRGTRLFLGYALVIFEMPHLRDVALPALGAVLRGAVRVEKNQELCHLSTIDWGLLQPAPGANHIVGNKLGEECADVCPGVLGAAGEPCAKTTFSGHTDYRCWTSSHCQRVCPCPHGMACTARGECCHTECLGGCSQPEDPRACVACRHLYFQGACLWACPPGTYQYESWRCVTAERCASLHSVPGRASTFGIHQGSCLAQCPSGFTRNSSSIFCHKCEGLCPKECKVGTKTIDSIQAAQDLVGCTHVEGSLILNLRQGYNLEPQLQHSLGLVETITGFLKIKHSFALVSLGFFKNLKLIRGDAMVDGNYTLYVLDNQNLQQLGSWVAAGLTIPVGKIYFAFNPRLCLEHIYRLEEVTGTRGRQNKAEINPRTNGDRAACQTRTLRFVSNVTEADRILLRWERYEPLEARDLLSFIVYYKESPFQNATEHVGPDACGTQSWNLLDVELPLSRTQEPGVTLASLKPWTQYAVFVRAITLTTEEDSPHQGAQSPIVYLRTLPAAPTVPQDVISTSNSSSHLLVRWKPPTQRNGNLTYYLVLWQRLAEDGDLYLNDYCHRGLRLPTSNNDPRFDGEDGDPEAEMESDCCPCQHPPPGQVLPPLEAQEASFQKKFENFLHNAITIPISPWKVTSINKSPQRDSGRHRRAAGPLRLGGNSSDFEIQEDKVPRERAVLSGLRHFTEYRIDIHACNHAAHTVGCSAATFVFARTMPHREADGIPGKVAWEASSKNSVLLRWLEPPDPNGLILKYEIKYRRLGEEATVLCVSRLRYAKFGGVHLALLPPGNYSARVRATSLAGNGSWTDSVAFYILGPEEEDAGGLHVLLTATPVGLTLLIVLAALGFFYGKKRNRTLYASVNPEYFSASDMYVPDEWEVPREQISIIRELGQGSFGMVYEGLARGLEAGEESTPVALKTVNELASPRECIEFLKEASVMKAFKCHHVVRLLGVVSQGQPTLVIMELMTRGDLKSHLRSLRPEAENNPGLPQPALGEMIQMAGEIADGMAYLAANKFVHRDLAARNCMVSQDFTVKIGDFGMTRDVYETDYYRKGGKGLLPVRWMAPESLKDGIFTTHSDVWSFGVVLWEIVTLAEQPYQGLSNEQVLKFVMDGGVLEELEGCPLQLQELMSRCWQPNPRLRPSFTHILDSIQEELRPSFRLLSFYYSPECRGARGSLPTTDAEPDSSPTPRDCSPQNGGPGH
T5 sequence (Q04759 whole entry): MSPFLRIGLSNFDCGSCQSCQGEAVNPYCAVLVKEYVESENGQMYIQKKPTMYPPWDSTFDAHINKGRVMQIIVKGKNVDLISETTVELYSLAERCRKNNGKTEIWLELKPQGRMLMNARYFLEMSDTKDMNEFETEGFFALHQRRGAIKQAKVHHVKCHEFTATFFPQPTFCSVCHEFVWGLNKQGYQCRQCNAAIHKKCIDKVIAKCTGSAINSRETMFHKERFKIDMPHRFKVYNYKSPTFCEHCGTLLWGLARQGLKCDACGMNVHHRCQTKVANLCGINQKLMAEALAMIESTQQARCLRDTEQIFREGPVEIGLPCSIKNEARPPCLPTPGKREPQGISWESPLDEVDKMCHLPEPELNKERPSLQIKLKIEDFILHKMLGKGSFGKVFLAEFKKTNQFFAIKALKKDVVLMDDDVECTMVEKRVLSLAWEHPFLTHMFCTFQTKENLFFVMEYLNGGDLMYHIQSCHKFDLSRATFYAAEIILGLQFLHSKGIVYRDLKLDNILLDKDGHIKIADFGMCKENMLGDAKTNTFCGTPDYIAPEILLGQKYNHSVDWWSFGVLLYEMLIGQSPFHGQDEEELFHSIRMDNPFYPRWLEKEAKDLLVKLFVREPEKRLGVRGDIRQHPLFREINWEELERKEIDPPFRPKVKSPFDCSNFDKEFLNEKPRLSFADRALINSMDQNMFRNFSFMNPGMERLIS

The inhibition is the percentage by which the read-out fell short of the control. Turning to `O=C(Cc1ccccc1)Nc1ccc(F)c(Nc2ccc3c(c2)CCCCC3=O)c1` [Compound 100], the Residual activity at TAOK3 (1.0E-05 M) was 98 % of control; on TAOK3 (1.0E-06 M), 105 % of control; on SIK1 (1.0E-05 M), 86 % of control; at SIK1 (1.0E-06 M), 84 % of control; at GRK3 (1.0E-05 M), 144 % of control; at GRK3 (1.0E-06 M), 118 % of control. Moreover, the Residual activity at EEF2K (1.0E-05 M) is listed as 89 % of control; on EEF2K (1.0E-06 M), 102 % of control; on PKCtheta (1.0E-05 M) it was 82 % of control; on PKCtheta (1.0E-06 M), 104 % of control; at PAK2 (1.0E-05 M), 68 % of control; on PAK2 (1.0E-06 M) it was 101 % of control. Moreover, the Residual activity at TRKA (1.0E-05 M) was 94 % of control; on TRKA (1.0E-06 M), 107 % of control; on p38beta (1.0E-05 M), 50 % of control; on p38beta (1.0E-06 M), 71 % of control; at MST3 (1.0E-05 M), 114 % of control; on MST3 (1.0E-06 M), 122 % of control. The results for the Residual activity on INSRR (1.0E-05 M) and at INSRR (1.0E-06 M) were 90 % of control and 92 % of control, respectively. In addition, the inhibition at 10 µM on p38beta is no less than 50%.
`O=C(Nc1ccc(F)c(Nc2ccc3c(c2)CCCCC3=O)c1)c1cccc(F)c1` [Compound 109]: the Residual activity at TAOK3 (1.0E-05 M) is reported as 91 % of control; at TAOK3 (1.0E-06 M) it was 99 % of control; on SIK1 (1.0E-05 M), 83 % of control; at SIK1 (1.0E-06 M), 89 % of control; at GRK3 (1.0E-05 M) it was 138 % of control; on GRK3 (1.0E-06 M) it was 122 % of control. For the same compound, the Residual activity at EEF2K (1.0E-05 M) was 94 % of control; on EEF2K (1.0E-06 M), 95 % of control; on PKCtheta (1.0E-05 M), 84 % of control; on PKCtheta (1.0E-06 M) it was 106 % of control; at PAK2 (1.0E-05 M) it was 69 % of control; on PAK2 (1.0E-06 M) it was 91 % of control. The Residual activity at TRKA (1.0E-05 M) is recorded as 97 % of control; on TRKA (1.0E-06 M), 101 % of control; on p38beta (1.0E-05 M) it was 2 % of control; at p38beta (1.0E-06 M) it was 3 % of control; on MST3 (1.0E-05 M) it was 103 % of control; at MST3 (1.0E-06 M), 106 % of control. In addition, the Residual activity at INSRR (1.0E-05 M) is 83 % of control; on INSRR (1.0E-06 M), 92 % of control. Further, the inhibition at 10 µM on p38beta was no less than 50%.

Values taken from article PMC9030254, “Target Hopping from Protein Kinases to PXR: Identification of Small-Molecule Protein Kinase Inhibitors as Selective Modulators of Pregnane X Receptor from TüKIC Library” (Cells, 2022).
